Test results taken from patent US20010018060A1, “Use of particular fatty substances which make it possible to modify the physicochemical properties of the skin and/or the mucous membranes as agents preventing or reducing the adhesion of microorganisms to the latter” (priority 2000, published 2001).

Key:
[1] = test system: Staphylococcus aureus adhering to reconstructed epidermis; format: cell-based; details: for Reduction of log/control: reduction of decimal logarithm of mean number of viable Staphylococcus aureus adhering to reconstructed epidermis (EPISKIN) vs water, 25 mg fatty substance, 2 hours at 37° C., then 24 hours with bacteria
Description: Moreover, these fatty substances are such that the decimal logarithm of the mean number of viable bacteria adhering to reconstructed epidermis, after a test consisting in bringing the said epidermis into contact with the test compound for 2 hours at 37° C., is at least 0.3, preferably 0.5 and more preferably 1, less than that obtained by a test carried out with water under the same conditions.
The reconstructed epidermis used in the test indicated above is reconstructed human epidermis, equivalent to human skin, sold by EPISKIN.
The antiadhesion test corresponds to the protocol below:
Before bacterial adhesion, the reconstructed epidermis is brought into contact for 2 hours with 25 mg of the fatty substance to be tested at 37° C. 1 ml of bacterial suspension of Staphylococcus aureus at a concentration of 10^7 microorganisms/ml in Tryptone salt is then added thereto. After incubating for 24 hours at 37° C., the bacterial suspension is emptied and five rinsings are carried out with 1 ml of sterile distilled water. The epidermis, detached from its support, is then ground with the aid of a food processor in 18 ml of Tryptone salt. A decimal dilution is carried out on this suspension in Tryptone salt, and 1 ml of the dilution is then inoculated into 15 ml of Trypticase Soy agar and the medium is incubated for 24 hours at 37° C. The adherent and viable cells are then counted.
This antiadhesion test makes it possible to evaluate the efficacy of molecules alone or of finished products.
(§1) The figures presented opposite the fatty substance correspond to the reduction of the decimal logarithm of the mean number of viable Staphylococcus aureus adhering to reconstructed epidermis after treatment with the fatty substance under the conditions defined by the preceding test compared with the decimal logarithm of the mean number of viable Staphylococcus aureus adhering to reconstructed epidermis after treatment with water under the same conditions.
as §1, with “value” for “reduction”

[2] = interfacial tension of the fatty substance; format: physicochemical

CCCCCCCCOC(=O)CCCCC(=O)OCCCCCCCC [Dioctyl adipate]
Reduction of log/control [1]: 0.9

CCCCCCCCCCCCCCCC(=O)OC(C)C [Isopropyl palmitate]
Reduction of log/control [1]: 1.07

CCCCCCCCCCCCCCCCCCCCCC(=O)OCC(O)COCC(CC)CCCC (centres unmarked) [Octoxyglyceryl behenate]
Reduction of log/control [1]: 2.59

CCCCCCCCCCCCCCCC(=O)OCC(O)COCC(CC)CCCC (centres unmarked) [Octoxyglyceryl palmitate]
Reduction of log/control [1]: 1.85

CC(C)CCCC(C)CCCC(C)CCCCC(C)CCCC(C)CCCC(C)C (centres unmarked) [Squalane, reference compound]
Interfacial tension [2]: 46 mN/m | Log measured ([1]; decimal logarithm of viable adhering Staphylococcus aureus compared with water control, the printed number is an increase /control, same test conditions): 0.27/control

Di(C12-13 alkyl) malate
Reduction of log/control [1]: 3.68

Tartrate of branched C12-C13 dialcohols
Reduction of log/control [1]: 2.31
